Data: patent publication US20250295625A1, “AGENT FOR PROMOTING ODONTOBLAST PROPAGATION AND DIFFERENTIATION” (SUN MEDICAL CO., LTD., priority 2019, published 2025)

Legend:
Type in all cases: cell-based
[1] = system: human dental pulp stem cell (hDPSC); test: Differentiation test of human dental pulp stem cells into odontoblasts (real-time PCR); settings: sample 5% by mass, 24 days, FIGS. 7A to 7E; for odontoblast-specific genes (BSP, rOPN, rOCB, rDSPP, and rDMP-1) mRNA expression: β-actin internal standard
Method: A DMEM for culturing hDPSC was prepared in the same manner as in the measurement of cell survival rate. […] The concentration of the sample in each odontoblast proliferation/differentiation promoting agent was 5% by mass. • Calcium salt of […]: […] (Comparative Example 1), • Calcium hydroxide: CH (Comparative Example 2), • Mineral trioxide aggregate: […] As an internal standard, β-actin was used. mRNA expression levels of RNA-bone sialoprotein (BSP) are shown in FIG. 7A. mRNA expression levels of RNA-osteopontin (rOPN) are shown in FIG. 7B. mRNA expression levels of RNA-osteocalcin (rOCN) are shown in FIG. 7C. mRNA expression levels of RNA-dentin sialophosphoprotein (rDSPP) are shown in FIG. 7D. mRNA expression levels of RNA-dentin matrix protein (rDMP-1) are shown in FIG. 7E.

[2] = system: human dental pulp stem cell (hDPSC); test: Calcification state of hDPSC culture (alkaline phosphatase measurement, alizarin red S staining); settings: ALPase at 14, 21, 28 days (FIG. 8), alizarin red S at 30 and 32 days (FIGS. 9A, 9B)
Method: When DMEM containing the odontoblast proliferation/differentiation promoting agent of Example 12 and ultrapure water (control) therein was allowed to stand for 14, 21, and 28 days, the calcification state thus obtained was evaluated via alkaline phosphatase (ALPase) measurement.
Further, when DMEM containing the odontoblast proliferation/differentiation promoting agents of Example 12 and Comparative Examples 1 to 4 and ultrapure water (control) therein was allowed to stand for 30 and 32 days, the calcification state thus obtained was evaluated via alizarin red S staining measurement. The evaluation of the calcification state was performed using one-way ANOVA and Tukey's HSD post-hoc test with a significance level set at 1%

[3] = system: MDPC-23 cell (rat dental papilla-derived cell), a rat odontoblast-like cell line; test: Odontoblast proliferation test (CCK-8 assay); settings: FIG. 4
Method: A Dulbecco's modified Eagle's medium (DMEM) added with 5% by mass of fetal bovine serum (FBS) was prepared. Then, an MDPC-23 cell (rat dental papilla-derived cell), which is a rat odontoblast-like cell line, was cultured in DMEM. Subsequently, 0.1 mL of DMEM where the MDPC-23 cells were cultured was injected into each well in a microplate (96 wells) so that 1000 MDPC-23 cells were distributed into each well.
Next, the odontoblast proliferation/differentiation promoting agents of Examples 1 to 10 and ultrapure water (control) were individually added to corresponding wells. Then, the added mixture was allowed to stand at ordinary temperature (25° C.) for 5 days. Thereafter, the proliferation of the MDPC-23 cells was evaluated using a kit for measuring the number of living cells (CCK-8: Cell Counting Kit-8).
In the CCK-8 assay, a microplate reader (measurement wavelength: 450 nm) was used. The CCK-8 assay was repeated 6 times.
The results of the CCK-8 assay in Examples 1 to 5 and the control were shown in FIG. 3 and the results of the CCK-8 assay in Examples 4, 6 to 10 and the control were shown in FIG. 4.

[4] = system: mesenchymal stem cell (MSC); test: Differentiation test of mesenchymal stem cells into odontoblasts (real-time PCR); settings: MSC, 10, 17, and 24 days
Method: A DMEM for culturing mesenchymal stem cell (MSC) was prepared in the same manner as the measurement of cell survival rate, except that hDPSC was replaced with MSC.
Next, the odontoblast proliferation/differentiation promoting agent of Example 12 and ultrapure water (control) were individually dissolved directly in the DMEM for culturing MSC. Then, DMEM was subjected to real-time PCR when allowed to stand for 10, 17, and 24 days. As an internal standard, β-actin was used.
mRNA expression levels of RNA-bone sialoprotein (BSP) are shown in FIG. 8A. mRNA expression levels of RNA-dentin matrix protein (rDMP-1) are shown in FIG. 8B.

| SMILES | differentiation of hDPSC into odontoblasts [1] | odontoblast-specific genes (BSP, rOPN, rOCB, rDSPP, and rDMP-1) mRNA expression [1] | calcification [2] | effect of promoting proliferation and/or differentiation of the MDPC-23 cells ([3]; as the concentration of C-MET was increased to 500 μg/mL (Example 7)) | effect of promoting proliferation and/or differentiation of the MDPC-23 cells ([3]; when the concentration of C-MET exceeded 500 μg/mL) | differentiation of MSC into odontoblasts [4] | odontoblast-specific genes (BSP, rDMP-1) mRNA expression ([4]; β-actin internal standard) |
| --- | --- | --- | --- | --- | --- | --- | --- |
| [Ca+2].[OH-].[OH-] [CH, Calcium hydroxide, reference compound] | not observed | no increase | calcification was found |  |  |  |  |
| C=C(C)C(=O)OCCOC(=O)c1ccc(C(=O)[O-])c(C(=O)[O-])c1.[Ca+2] [C-MET, calcium salt of 4-methacryloyloxyethyltrimellitic acid] | promoted | increased | promoted | gradually improved | not found any further improvement | promoted | increased |
| [Ca+2].[Cl-].[Cl-] [CaCl2, Calcium chloride] |  |  | calcification was found |  |  |  |  |
